Measurements as given in patent publication US8618154B2, “LXR modulators” (Bristol-Myers Squibb Company, priority 2009, dated 2013).
Where two headings read alike, the source gives them in different places.

System: ABCA1 gene expression
Assay: Human whole blood assay (hWBA), ABCA1 mRNA induction
Assay type: cell-based
Conditions: for Emax: read-out: hWBA hABCA1 L30 Max P (%)
Description: Human whole blood was collected in EDTA containing tubes and 0.5 mL aliquots were immediately mixed in a 96 well block with the appropriate serial dilution of test compound, in 0.5% DMSO. Compounds were incubated with blood at 37° C. with constant rocking for 4 hours. After incubation, cells were lysed in ABI Nucleic Acid Purification Lysis Solution (Applied Biosystems catalog #4305895) and frozen at −80° C. Following cell lysis, total RNA was purified using an ABI 6100 RNA prep station according to the protocol provided by the manufacturer. cDNAs were synthesized, and mRNAs were quantitated using SYBR-Green Quantitative PCR (Q-PCR) on an ABI Prism 7900HT Sequence Detection System and reagents from Quanta Bioscience Inc (Quanta Bioscience catalog #95047 and 95055).
The quantity of each mRNA was determined by the ΔΔCT method (Michael W. Pfaffl. A new mathematical model for relative quantification in real-time RT-PCR. Nucleic Acids Research, 2001, Vol. 29, No. 9 e45) and normalized to the quantity of two control mRNAs, i.e. ribosomal protein L-30 (L-30) and beta-2-microglobulin (B2M). The induction of ABCA1 and ABCG1 by test compound was graphed as a percent of the reference compound, 2-(4-(5-(5-cyano-1-(2,4-difluorobenzyl)-6-oxo-4-(trifluoromethyl)-1,6-dihydropyridin-2-yl)thiophen-2-yl)-3-methylphenyl)acetic acid, and potency (EC50) and activity (% MAX) were calculated by fitting a sigmoidal response curve as a function of log transformed compound concentration using XLFit software according to the equation y=A+((B−A)/(1+((C/x)^D))).

[1] = Homo sapiens, 4 h, percent of reference pan agonist (maximal activity defined as 100%)
[2] = human whole blood, 4 hours, ABCA1 mRNA normalized to L30, read-out: hWBA hABCA1 L30 EC50

Compound | Emax [1] [%] | EC50 [2] [nM] | EC50 (Homo sapiens, 4 h, read-out: hWBA hABCA1 L30 EC50 (nM)) [nM] | Emax (Homo sapiens, 4 h) [%]
CC(C)(O)c1cn(-c2ccc(-c3cc(F)c(CO)c(S(C)(=O)=O)c3)cc2Cl)c(Cc2ccc(F)cc2Cl)n1 [Example 13, 2-(1-(3-chloro-3′-fluoro-4′-(hydroxymethyl)-5′-(methylsulfonyl)biphenyl-4-yl)-2-(2-chloro-4-fluorobenzyl)-1H-imidazol-4-yl)propan-2-ol] | 50 | < 100 | – | –
CC(C)(O)c1cn(-c2ccc(-c3cc(F)c(CO)c(S(C)(=O)=O)c3)cc2)c(Cc2cc(F)ccc2Cl)n1 [Example 19, 2-[2-(2-Chloro-5-fluoro-benzyl)-1-(3′-fluoro-4′-hydroxymethyl-5′-methanesulfonyl-biphenyl-4-yl)-1H-imidazol-4-yl]-propan-2-ol] | 35 | < 100 | – | –
CC(C)(O)c1cn(-c2ccc(-c3cc(F)c(CO)c(S(C)(=O)=O)c3)cc2F)c(Cc2ccccc2Cl)n1 [Example 20, 2-[2-(2-Chloro-benzyl)-1-(3,3′-difluoro-4′-hydroxymethyl-5′-methanesulfonyl-biphenyl-4-yl)-1H-imidazol-4-yl]-propan-2-ol] | 35 | < 100 | – | –
CC(C)(O)c1cn(-c2ccc(-c3cc(F)c(CO)c(S(C)(=O)=O)c3)cc2F)c(C(C)(C)c2c(F)cccc2Cl)n1 [Example 7, 2-(2-(2-(2-chloro-6-fluorophenyl)propan-2-yl)-1-(3,3′-difluoro-4′-(hydroxymethyl)-5′-(methylsulfonyl)biphenyl-4-yl)-1H-imidazol-4-yl)propan-2-ol] | 33 | < 100 | – | –
CC(C)(O)c1cn(-c2ccc(-c3cc(F)c(CO)c(S(C)(=O)=O)c3)cc2)c(Cc2c(Cl)cccc2Cl)n1 [Example 18, 2-(2-(2,6-dichlorobenzyl)-1-(3′-fluoro-4′-(hydroxymethyl)-5′-(methylsulfonyl)biphenyl-4-yl)-1H-imidazol-4-yl)propan-2-ol] | 51 | < 100 | – | –
CC(C)(O)c1cn(-c2ccc(-c3cc(F)c(CO)c(S(C)(=O)=O)c3)cc2)c(Cc2ccc(Cl)cc2Cl)n1 [Example 15, 2-(2-(2,4-dichlorobenzyl)-1-(3′-fluoro-4′-(hydroxymethyl)-5′-(methylsulfonyl)biphenyl-4-yl)-1H-imidazol-4-yl)propan-2-ol] | 47 | < 100 | – | –
CC(C)(O)c1cn(-c2ccc(-c3cc(F)c(CO)c(S(C)(=O)=O)c3)cc2F)c(Cc2ccc(F)cc2Cl)n1 [Example 14, 2-(2-(2-chloro-4-fluorobenzyl)-1-(3,3′-difluoro-4′-(hydroxymethyl)-5′-(methylsulfonyl)biphenyl-4-yl)-1H-imidazol-4-yl)propan-2-ol] | 24 | < 100 | – | –
Cc1cc(-c2cc(F)c(CO)c(S(C)(=O)=O)c2)ccc1-n1cc(C(C)(C)O)nc1C(C)(C)c1c(F)cccc1Cl [Example 2, 2-(2-(2-(2-chloro-6-fluorophenyl)propan-2-yl)-1-(3′-fluoro-4′-(hydroxymethyl)-3-methyl-5′-(methylsulfonyl)biphenyl-4-yl)-1H-imidazol-4-yl)propan-2-ol] | 18 | < 100 | – | –
CC(C)(O)c1cn(-c2ccc(-c3cc(F)c(CO)c(S(C)(=O)=O)c3)cc2F)c(C(C)(C)c2ccccc2Cl)n1 [Example 6, 2-(2-(2-(2-Chloro-phenyl)propan-2-yl)-1-(3,3′-difluoro-4′-hydroxymethyl-5′-(methylsulfonyl)biphenyl-4-yl)-1H-imidazol-4-yl)-propan-2-ol] | 35 | < 100 | – | –
CC(c1c(Cl)cccc1Cl)c1nc(C(C)(C)O)cn1-c1ccc(-c2cc(F)c(CO)c(S(C)(=O)=O)c2)cc1F (stereo not drawn) [Example 21, 2-{2-[1-(2,6-dichlorophenyl)ethyl]-1-[3,3′-difluoro-4′-(hydroxymethyl)-5′-(methylsulfonyl)biphenyl-4-yl]-1H-imidazol-4-yl}propan-2-ol] | – | – | < 100 | 17
CC(C)(O)c1cn(-c2ccc(-c3cc(F)c(CO)c(S(C)(=O)=O)c3)cc2Cl)c(C(C)(C)c2c(Cl)cccc2Cl)n1 [Example 3, 2-(1-(3-chloro-3′-fluoro-4′-(hydroxymethyl)-5′-(methylsulfonyl)biphenyl-4-yl)-2-(2-(2,6-dichlorophenyl)propan-2-yl)-1H-imidazol-4-yl)propan-2-ol] | 16 | < 100 | – | –
CC(C)(O)c1cn(-c2ccc(-c3cc(F)c(CO)c(S(C)(=O)=O)c3)cc2)c(C(C)(C)c2ccccc2F)n1 [Example 1, 2-(1-(3′-fluoro-4′-(hydroxymethyl)-5′-(methylsulfonyl)biphenyl-4-yl)-2-(2-(2-fluorophenyl)propan-2-yl)-1H-imidazol-4-yl)propan-2-ol] | 28 | < 100 | – | –
CC(C)(O)c1cn(-c2ccc(-c3cc(F)c(CO)c(S(C)(=O)=O)c3)cc2F)c(Cc2ccccc2C(F)(F)F)n1 [Example 12, 2-(1-(3,3′-difluoro-4′-(hydroxymethyl)-5′-(methylsulfonyl)biphenyl-4-yl)-2-(2-(trifluoromethyl)benzyl)-1H-imidazol-4-yl)propan-2-ol] | 32 | < 100 | – | –
CC(C)(O)c1cn(-c2ccc(-c3cc(F)c(CO)c(S(C)(=O)=O)c3)cc2F)c(Cc2ccccc2F)n1 [Example 16, 2-(1-(3,3′-difluoro-4′-(hydroxymethyl)-5′-(methylsulfonyl)biphenyl-4-yl)-2-(2-fluorobenzyl)-1H-imidazol-4-yl)propan-2-ol] | 41 | < 100 | – | –
CC(C)(O)c1cn(-c2ccc(-c3cc(F)c(CO)c(S(C)(=O)=O)c3)cc2F)c(C(C)(C)c2ccccc2F)n1 [Example 8, 2-{1-(3,3′-Difluoro-4′-hydroxymethyl-5′-methanesulfonyl-biphenyl-4-yl)-2-[2-(2-fluorophenyl)propan-2-yl]-1H-imidazol-4-yl}-propan-2-ol] | 23 | < 100 | – | –
CC(C)(O)c1cn(-c2ccc(-c3cc(F)c(CO)c(S(C)(=O)=O)c3)cc2)c(C(C)(C)c2c(Cl)cccc2Cl)n1 [Example 5, 2-(2-(2-(2,6-dichlorophenyl)propan-2-yl)-1-(3′-fluoro-4′-(hydroxymethyl)-5′-(methylsulfonyl)biphenyl-4-yl)-1H-imidazol-4-yl)propan-2-ol] | 43 | < 100 | – | –
Cc1ccccc1Cc1nc(C(C)(C)O)cn1-c1ccc(-c2cc(F)c(CO)c(S(C)(=O)=O)c2)cc1 [Example 17, 2-(1-(3′-fluoro-4′-(hydroxymethyl)-5′-(methylsulfonyl)biphenyl-4-yl)-2-(2-methylbenzyl)-1H-imidazol-4-yl)propan-2-ol] | 20 | < 100 | – | –
CC(C)(O)c1cn(-c2ccc(-c3cc(F)c(CO)c(S(C)(=O)=O)c3)cc2F)c(Cc2ccc(Cl)cc2Cl)n1 [Example 11, 2-(2-(2,4-dichlorobenzyl)-1-(3,3′-difluoro-4′-(hydroxymethyl)-5′-(methylsulfonyl)biphenyl-4-yl)-1H-imidazol-4-yl)propan-2-ol] | 16 | < 100 | – | –
